Reference: PubChem BioAssay AID2060894 (Molecular Pharmacology Branch, DTP, NCI, 2025)

System: K12877-001-R-J1-PDC complex spheroid viability
Test: Anticancer human tumor K12877-001-R-J1-PDC patient-derived lung adenocarcinoma cell line growth inhibition [RAS]
Conditions: for IC50: curve of first compound; for viability, T/C: stronger effect = lower value; active means viability on the fitted dose curve at most 10% of control; inactive means the rest
In short: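 Tumour cells grown as complex spheroids with HUVEC endothelial cells and mesenchymal stem cells, treated with RAS pathway inhibitor combinations. Each agent spans half-log steps from near clinical Cmax, or 10 microM where Cmax is unknown.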

[1] = second compound 0.000949 µM, first compound 0.0316 µM
[2] = second compound 0.000949 µM, first compound 0.1 µM
[3] = second compound 0.000949 µM, first compound 0.316 µM
[4] = second compound 0.000949 µM, first compound 1 µM
[5] = second compound 0.000949 µM, first compound 3.16 µM
[6] = second compound 0.000949 µM, first compound 10 µM
[7] = second compound 0.003 µM, first compound 0.0316 µM
[8] = second compound 0.003 µM, first compound 0.1 µM
[9] = second compound 0.003 µM, first compound 0.316 µM
[10] = second compound 0.003 µM, first compound 1 µM
[11] = second compound 0.003 µM, first compound 3.16 µM
[12] = second compound 0.003 µM, first compound 10 µM
[13] = second compound 0.00949 µM, first compound 0.0316 µM
[14] = second compound 0.00949 µM, first compound 0.1 µM
[15] = second compound 0.00949 µM, first compound 0.316 µM
[16] = second compound 0.00949 µM, first compound 1 µM
[17] = second compound 0.00949 µM, first compound 3.16 µM
[18] = second compound 0.00949 µM, first compound 10 µM
[19] = second compound 0.03 µM, first compound 0.0316 µM
[20] = second compound 0.03 µM, first compound 0.1 µM
[21] = second compound 0.03 µM, first compound 0.316 µM
[22] = second compound 0.03 µM, first compound 1 µM
[23] = second compound 0.03 µM, first compound 3.16 µM
[24] = second compound 0.03 µM, first compound 10 µM
[25] = second compound 0.0949 µM, first compound 0.0316 µM
[26] = second compound 0.0949 µM, first compound 0.1 µM
[27] = second compound 0.0949 µM, first compound 0.316 µM
[28] = second compound 0.0949 µM, first compound 1 µM
[29] = second compound 0.0949 µM, first compound 3.16 µM
[30] = second compound 0.0949 µM, first compound 10 µM
[31] = second compound 0.3 µM, first compound 0.0316 µM
[32] = second compound 0.3 µM, first compound 0.1 µM
[33] = second compound 0.3 µM, first compound 0.316 µM
[34] = second compound 0.3 µM, first compound 1 µM
[35] = second compound 0.3 µM, first compound 3.16 µM
[36] = second compound 0.3 µM, first compound 10 µM
[37] = second compound 0.000949 µM, first compound 0.00316 µM
[38] = second compound 0.000949 µM, first compound 0.01 µM
[39] = second compound 0.003 µM, first compound 0.00316 µM
[40] = second compound 0.003 µM, first compound 0.01 µM
[41] = second compound 0.00949 µM, first compound 0.00316 µM
[42] = second compound 0.00949 µM, first compound 0.01 µM
[43] = second compound 0.03 µM, first compound 0.00316 µM
[44] = second compound 0.03 µM, first compound 0.01 µM
[45] = second compound 0.0949 µM, first compound 0.00316 µM
[46] = second compound 0.0949 µM, first compound 0.01 µM
[47] = second compound 0.3 µM, first compound 0.00316 µM
[48] = second compound 0.3 µM, first compound 0.01 µM
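Further: spheroids exposed to agents for one week before readout.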
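Wherever viability, T/C is given: tumour cells co-cultured with HUVEC and mesenchymal stem cells in spheroids.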

CC(C)NCC(C(=O)N1CCN(c2ncnc3c2C(C)CC3O)CC1)c1ccc(Cl)cc1 (stereo not drawn) + CCn1c(-c2cccnc2C(C)OC)c2c3cc(ccc31)N1CCOC(CC(NC(=O)C(C(C)C)N(C)C(=O)C3(F)CCN(C(=O)C#CC(C)(C)N(C)C)CC3)C(=O)N3CCCC(N3)C(=O)OCC(C)(C)C2)C1
1430 nM: IC50 (second compound 0.00949 µM)
488 nM: IC50 (second compound 0.0949 µM)
170 nM: IC50 (second compound 0.3 µM)
1260 nM: IC50 (second compound 0.000949 µM)
1280 nM: IC50 (second compound 0.003 µM)
956 nM: IC50 (second compound 0.03 µM)
inactive: viability, T/C [1] 88.5% | viability, T/C [2] 76.6% | viability, T/C [3] 80.5% | viability, T/C [4] 55.5% | viability, T/C [5] 26.7% | viability, T/C [6] 18.3% | viability, T/C [7] 80.6% | viability, T/C [8] 88% | viability, T/C [9] 67.1% | viability, T/C [10] 60.6% | viability, T/C [11] 26.5% | viability, T/C [12] 19.6% | viability, T/C [13] 78.5% | viability, T/C [14] 68.5% | viability, T/C [15] 82.8% | viability, T/C [16] 58.7% | viability, T/C [17] 27.9% | viability, T/C [18] 16% | viability, T/C [19] 75.7% | viability, T/C [20] 68.9% | viability, T/C [21] 81.6% | viability, T/C [22] 49% | viability, T/C [23] 26.8% | viability, T/C [24] 15.9% | viability, T/C [25] 72.7% | viability, T/C [26] 73.5% | viability, T/C [27] 51.8% | viability, T/C [28] 41.5% | viability, T/C [29] 23.1% | viability, T/C [30] 12.1% | viability, T/C [31] 57.8% | viability, T/C [32] 52.8% | viability, T/C [33] 46.3% | viability, T/C [34] 23.5% | viability, T/C [35] 19% | viability, T/C [36] 10.6%

CC(C)n1nc(-c2ccc3oc(N)nc3c2)c2c(N)ncnc21 + CCn1c(-c2cccnc2C(C)OC)c2c3cc(ccc31)N1CCOC(CC(NC(=O)C(C(C)C)N(C)C(=O)C3(F)CCN(C(=O)C#CC(C)(C)N(C)C)CC3)C(=O)N3CCCC(N3)C(=O)OCC(C)(C)C2)C1
3.56 nM: IC50 (second compound 0.0949 µM)
inactive: viability, T/C (second compound 0.000949 µM, first compound 0.000316 µM) 81.6% | viability, T/C (second compound 0.000949 µM, first compound 0.001 µM) 81.3% | viability, T/C [37] 78.2% | viability, T/C [38] 47.4% | viability, T/C [1] 18.7% | viability, T/C [2] 11.9% | viability, T/C (second compound 0.003 µM, first compound 0.000316 µM) 77.6% | viability, T/C (second compound 0.003 µM, first compound 0.001 µM) 80.9% | viability, T/C [39] 66.2% | viability, T/C [40] 41.8% | viability, T/C [7] 20.4% | viability, T/C [8] 11% | viability, T/C (second compound 0.00949 µM, first compound 0.000316 µM) 77.5% | viability, T/C (second compound 0.00949 µM, first compound 0.001 µM) 76.9% | viability, T/C [41] 63.4% | viability, T/C [42] 50% | viability, T/C [13] 16.2% | viability, T/C (second compound 0.03 µM, first compound 0.000316 µM) 69.3% | viability, T/C (second compound 0.03 µM, first compound 0.001 µM) 69.6% | viability, T/C [43] 59.1% | viability, T/C [44] 44% | viability, T/C [19] 18.4% | viability, T/C (second compound 0.0949 µM, first compound 0.000316 µM) 68.7% | viability, T/C (second compound 0.0949 µM, first compound 0.001 µM) 61.4% | viability, T/C [45] 50% | viability, T/C [46] 37.8% | viability, T/C [25] 12.2% | viability, T/C (second compound 0.3 µM, first compound 0.000316 µM) 65% | viability, T/C (second compound 0.3 µM, first compound 0.001 µM) 53.1% | viability, T/C [47] 39.8% | viability, T/C [48] 28.8% | viability, T/C [31] 12.6%
9.24 nM: IC50 (second compound 0.000949 µM)
active: viability, T/C [14] 8.87% | viability, T/C [20] 7.89% | viability, T/C [26] 7.05% | viability, T/C [32] 6.48%
8.2 nM: IC50 (second compound 0.00949 µM)
6.95 nM: IC50 (second compound 0.003 µM)
1.37 nM: IC50 (second compound 0.3 µM)
6.3 nM: IC50 (second compound 0.03 µM)

CC(Nc1ccc2c(c1)OCCn1cc(N3C(=O)OCC3C(F)F)nc1-2)C(N)=O (stereo not drawn) + CCn1c(-c2cccnc2C(C)OC)c2c3cc(ccc31)N1CCOC(CC(NC(=O)C(C(C)C)N(C)C(=O)C3(F)CCN(C(=O)C#CC(C)(C)N(C)C)CC3)C(=O)N3CCCC(N3)C(=O)OCC(C)(C)C2)C1
571 nM: IC50 (second compound 0.03 µM)
931 nM: IC50 (second compound 0.000949 µM)
472 nM: IC50 (second compound 0.003 µM)
81.7 nM: IC50 (second compound 0.3 µM)
312 nM: IC50 (second compound 0.00949 µM)
172 nM: IC50 (second compound 0.0949 µM)
inactive: viability, T/C [1] 73.5% | viability, T/C [2] 69.8% | viability, T/C [3] 55.3% | viability, T/C [4] 51.5% | viability, T/C [5] 37.5% | viability, T/C [6] 19.3% | viability, T/C [7] 74.8% | viability, T/C [8] 66.8% | viability, T/C [9] 48% | viability, T/C [10] 40.3% | viability, T/C [11] 44% | viability, T/C [12] 19.2% | viability, T/C [13] 76.6% | viability, T/C [14] 53.7% | viability, T/C [15] 50.7% | viability, T/C [16] 43.6% | viability, T/C [17] 34% | viability, T/C [18] 22.3% | viability, T/C [19] 65.8% | viability, T/C [20] 62.9% | viability, T/C [21] 55.2% | viability, T/C [22] 44.8% | viability, T/C [23] 30.5% | viability, T/C [24] 16.1% | viability, T/C [25] 66.8% | viability, T/C [26] 52% | viability, T/C [27] 44.6% | viability, T/C [28] 34.4% | viability, T/C [29] 28% | viability, T/C [30] 13.4% | viability, T/C [31] 65.5% | viability, T/C [32] 41.2% | viability, T/C [33] 35.7% | viability, T/C [34] 28.1% | viability, T/C [35] 21.8% | viability, T/C [36] 8.8%

O=C(c1ccc(F)c(F)c1Nc1ccc(I)cc1F)N1CC(O)([C@@H]2CCCCN2)C1 + CCn1c(-c2cccnc2C(C)OC)c2c3cc(ccc31)N1CCOC(CC(NC(=O)C(C(C)C)N(C)C(=O)C3(F)CCN(C(=O)C#CC(C)(C)N(C)C)CC3)C(=O)N3CCCC(N3)C(=O)OCC(C)(C)C2)C1
239 nM: IC50 (second compound 0.003 µM)
144 nM: IC50 (second compound 0.00949 µM)
inactive: viability, T/C [37] 81.2% | viability, T/C [38] 77.5% | viability, T/C [1] 80.8% | viability, T/C [2] 66.5% | viability, T/C [3] 49.9% | viability, T/C [4] 35.4% | viability, T/C [39] 72.6% | viability, T/C [40] 69.8% | viability, T/C [7] 67.5% | viability, T/C [8] 66.8% | viability, T/C [9] 44.6% | viability, T/C [10] 28.6% | viability, T/C [41] 71.1% | viability, T/C [42] 62.6% | viability, T/C [13] 70.7% | viability, T/C [14] 55.4% | viability, T/C [15] 37.7% | viability, T/C [16] 32.7% | viability, T/C [43] 66.1% | viability, T/C [44] 72.8% | viability, T/C [19] 73.1% | viability, T/C [20] 59% | viability, T/C [21] 46.3% | viability, T/C [22] 28.9% | viability, T/C [45] 76.7% | viability, T/C [46] 64.5% | viability, T/C [25] 69.5% | viability, T/C [26] 45.9% | viability, T/C [27] 44.3% | viability, T/C [28] 33.9% | viability, T/C [47] 70% | viability, T/C [48] 65.6% | viability, T/C [31] 52.1% | viability, T/C [32] 45.6% | viability, T/C [33] 40.1% | viability, T/C [34] 31%
300 nM: IC50 (second compound 0.000949 µM)
58.7 nM: IC50 (second compound 0.3 µM)
129 nM: IC50 (second compound 0.0949 µM)
227 nM: IC50 (second compound 0.03 µM)
